This passage reports EC50 results from patent US8802661B2, “C-28 amides of modified C-3 betulinic acid derivatives as HIV maturation inhibitors” (priority 2010, dated 2014).

The first assay has as its system recombinant NL4-3 virus (Renilla luciferase in nef, Gag P373S). The assay can be described thus: HIV Cell Culture Assay (luciferase reporter virus in MT-2 cells). The assay is classed as cell-based. Particulars: NL43. As to the method:
MT-2 cells and 293T cells were obtained from the NIH AIDS Research and Reference Reagent Program. MT-2 cells were propagated in RPMI 1640 media supplemented with 10% heat inactivated fetal bovine serum, […]. The 293T cells were propagated in DMEM media supplemented with 10% heat inactivated fetal bovine serum (FBS), 100 units/ml penicillin G and 100 μg/ml streptomycin. The proviral DNA clone of NL4-3 was obtained from the NIH AIDS Research and Reference Reagent Program. A recombinant NL4-3 virus, in which a section of the nef gene from NL4-3 was replaced with the Renilla luciferase gene, was used as a reference virus. In addition, residue Gag P373 was converted to P373S. Briefly, the recombinant virus was prepared by transfection of the altered proviral clone of NL4-3. Transfections were performed in 293T cells using LipofectAMINE PLUS from Invitrogen (Carlsbad, Calif.), according to manufacturer's instruction. The virus was titered in MT-2 cells using luciferase enzyme activity as a marker. Luciferase was quantitated using the Dual Luciferase kit from Promega (Madison, Wis.), with modifications to the manufacturer's protocol. The diluted Passive Lysis solution was pre-mixed with the re-suspended Luciferase Assay Reagent and the re-suspended Stop & Glo Substrate (2:1:1 ratio). Fifty (50) μL of the mixture was added to each aspirated well on assay plates and luciferase activity was measured immediately on a Wallac TriLux (Perkin-Elmer). Antiviral activities of inhibitors toward the recombinant virus were quantified by measuring luciferase activity in cells infected for 4-5 days with NLRluc recombinants in the presence serial dilutions of the inhibitor. Table 1 is the key for the data in Table 2.
(Reporter assays use an easily measured gene product as a stand-in for the process of interest.)
The term EC50 denotes the concentration that produces a half-maximal response. Take `CC(C)[C@@H]1CC[C@]2(C(=O)NCC[N+](C)(C)[O-])CC[C@]3(C)[C@H](CC[C@@H]4[C@@]5(C)CC=C(c6ccc(C(=O)O)cc6)C(C)(C)[C@@H]5CC[C@]43C)[C@@H]12` [Example 97, 2-((1S,3aS,5aR,5bR,7aR,11aS,11bR,13aR,13bR)-9-(4-carboxyphenyl)-1-isopropyl-5a,5b,8,8,11a-pentamethyl-2,3,3a,4,5,5a,5b,6,7,7a,8,11,11a,11b,12,13,13a,13b-octadecahydro-1H-cyclopenta[a]chrysene-3a-carboxamido)-N,N-dimethylethanamine oxide]: the EC50 amounted to 2.6 nM.

Staying with this assay, now noted: NL43, read-out: EC50 Group.
With `C=C(C)[C@@H]1CC[C@]2(C(=O)NCCN(CC(=O)O)C(C)C)CC[C@]3(C)[C@H](CC[C@@H]4[C@@]5(C)CC=C(c6ccc(C(=O)O)cc6)C(C)(C)[C@@H]5CC[C@]43C)[C@@H]12` [Example 95, 4-((1R,3aS,5aR,5bR,7aR,11aS,11bR,13aR,13bR)-3a-(2-((carboxymethyl)(isopropyl)amino)ethylcarbamoyl)-5a,5b,8,8,11a-pentamethyl-1-(prop-1-en-2-yl)-2,3,3a,4,5,5a,5b,6,7,7a,8,11,11a,11b,12,13,13a,13b-octadecahydro-1H-cyclopenta[a]chrysen-9-yl)benzoic acid], the EC50 is < 100 nM.

For `C=C(C)[C@@H]1CC[C@]2(C(=O)NCc3ncc[nH]3)CC[C@]3(C)[C@H](CC[C@@H]4[C@@]5(C)CC=C(c6ccc(C(=O)O)cc6)C(C)(C)[C@@H]5CC[C@]43C)[C@@H]12` [Example 43], the concentration giving a half-maximal response (EC50) is < 100 nM.

`C=C(C)[C@@H]1CC[C@]2(C(=O)NCCN(C)C(C)=O)CC[C@]3(C)[C@H](CC[C@@H]4[C@@]5(C)CC=C(c6ccc(C(=O)O)cc6)C(C)(C)[C@@H]5CC[C@]43C)[C@@H]12` [Example 75, 4-((1R,3aS,5aR,5bR,7aR,11aS,11bR,13aR,13bR)-5a,5b,8,8,11a-pentamethyl-3a-(2-(N-methylacetamido)ethylcarbamoyl)-1-(prop-1-en-2-yl)-2,3,3a,4,5,5a,5b,6,7,7a,8,11,11a,11b,12,13,13a,13b-octadecahydro-1H-cyclopenta[a]chrysen-9-yl)benzoic acid]: the EC50 was < 100 nM.

`C=C(C)[C@@H]1CC[C@]2(C(=O)NCCN3CCNC(=O)C3)CC[C@]3(C)[C@H](CC[C@@H]4[C@@]5(C)CC=C(c6ccc(C(=O)O)cc6)C(C)(C)[C@@H]5CC[C@]43C)[C@@H]12` [Example 108, 4-((1R,3aS,5aR,5bR,7aR,11aS,11bR,13aR,13bR)-5a,5b,8,8,11a-pentamethyl-3a-(2-(3-oxopiperazin-1-yl)ethylcarbamoyl)-1-(prop-1-en-2-yl)-2,3,3a,4,5,5a,5b,6,7,7a,8,11,11a,11b,12,13,13a,13b-octadecahydro-1H-cyclopenta[a]chrysen-9-yl)benzoic acid]: the EC50 is < 100 nM.

In the case of `C=C(C)[C@@H]1CC[C@]2(C(=O)N[C@H](C(=O)O)c3ccccc3)CC[C@]3(C)[C@H](CC[C@@H]4[C@@]5(C)CC=C(c6ccc(C(=O)O)cc6)C(C)(C)[C@@H]5CC[C@]43C)[C@@H]12` [Example 56, 4-((1R,3aS,5aR,5bR,7aR,11aS,11bR,13aR,13bR)-3a-((S)-carboxy(phenyl)methylcarbamoyl)-5a,5b,8,8,11a-pentamethyl-1-(prop-1-en-2-yl)-2,3,3a,4,5,5a,5b,6,7,7a,8,11,11a,11b,12,13,13a,13b-octadecahydro-1H-cyclopenta[a]chrysen-9-yl)benzoic acid], the EC50 was < 100 nM.

With `C=C(C)[C@@H]1CC[C@]2(C(=O)NCc3cccnc3)CC[C@]3(C)[C@H](CC[C@@H]4[C@@]5(C)CC=C(c6ccc(C(=O)O)cc6)C(C)(C)[C@@H]5CC[C@]43C)[C@@H]12` [Example 29, 4-((1R,3aS,5aR,5bR,7aR,11aS,11bR,13aR,13bR)-5a,5b,8,8,11a-pentamethyl-1-(prop-1-en-2-yl)-3a-(pyridin-3-ylmethylcarbamoyl)-2,3,3a,4,5,5a,5b,6,7,7a,8,11,11a,11b,12,13,13a,13b-octadecahydro-1H-cyclopenta[a]chrysen-9-yl)benzoic acid], the EC50 is < 100 nM.

For `C=C(C)[C@@H]1CC[C@]2(C(=O)NCCN(C)C)CC[C@]3(C)[C@H](CC[C@@H]4[C@@]5(C)CC=C(c6ccc(C(=O)O)cc6)C(C)(C)[C@@H]5CC[C@]43C)[C@@H]12` [Example 16, 4-((1R,3aS,5aR,5bR,7aR,11aS,11bR,13aR,13bR)-3a-(2-(dimethylamino)ethylcarbamoyl)-5a,5b,8,8,11a-pentamethyl-1-(prop-1-en-2-yl)-2,3,3a,4,5,5a,5b,6,7,7a,8,11,11a,11b,12,13,13a,13b-octadecahydro-1H-cyclopenta[a]chrysen-9-yl)benzoic acid], the EC50 was < 100 nM.

With `C=C(C)[C@@H]1CC[C@]2(C(=O)NCCCN(CC)CCC(=O)O)CC[C@]3(C)[C@H](CC[C@@H]4[C@@]5(C)CC=C(c6ccc(C(=O)O)cc6)C(C)(C)[C@@H]5CC[C@]43C)[C@@H]12` [Example 99, 4-((1R,3aS,5aR,5bR,7aR,11aS,11bR,13aR,13bR)-3a-(3-((2-carboxyethyl)(ethyl)amino)propylcarbamoyl)-5a,5b,8,8,11a-pentamethyl-1-(prop-1-en-2-yl)-2,3,3a,4,5,5a,5b,6,7,7a,8,11,11a,11b,12,13,13a,13b-octadecahydro-1H-cyclopenta[a]chrysen-9-yl)benzoic acid], the EC50 is < 100 nM.

On to `C=C(C)[C@@H]1CC[C@]2(C(=O)NCCNc3ccccc3)CC[C@]3(C)[C@H](CC[C@@H]4[C@@]5(C)CC=C(c6ccc(C(=O)O)cc6)C(C)(C)[C@@H]5CC[C@]43C)[C@@H]12` [Example 110, 4-((1R,3aS,5aR,5bR,7aR,11aS,11bR,13aR,13bR)-5a,5b,8,8,11a-pentamethyl-3a-(2-(phenylamino)ethylcarbamoyl)-1-(prop-1-en-2-yl)-2,3,3a,4,5,5a,5b,6,7,7a,8,11,11a,11b,12,13,13a,13b-octadecahydro-1H-cyclopenta[a]chrysen-9-yl)benzoic acid], for which the concentration for a half-maximal effect (EC50) is < 100 nM.

For `C=C(C)[C@@H]1CC[C@]2(C(=O)NCCCN3CCCC3=O)CC[C@]3(C)[C@H](CC[C@@H]4[C@@]5(C)CC=C(c6ccc(C(=O)O)cc6)C(C)(C)[C@@H]5CC[C@]43C)[C@@H]12` [Example 87, 4-((1R,3aS,5aR,5bR,7aR,11aS,11bR,13aR,13bR)-5a,5b,8,8,11a-pentamethyl-3a-(3-(2-oxopyrrolidin-1-yl)propylcarbamoyl)-1-(prop-1-en-2-yl)-2,3,3a,4,5,5a,5b,6,7,7a,8,11,11a,11b,12,13,13a,13b-octadecahydro-1H-cyclopenta[a]chrysen-9-yl)benzoic acid], the concentration for a half-maximal effect (EC50) was < 100 nM.

In the case of `C=C(C)[C@@H]1CC[C@]2(C(=O)NCCc3ccccn3)CC[C@]3(C)[C@H](CC[C@@H]4[C@@]5(C)CC=C(c6ccc(C(=O)O)cc6)C(C)(C)[C@@H]5CC[C@]43C)[C@@H]12` [Example 1, 4-((1R,3aS,5aR,5bR,7aR,11aS,11bR,13aR,13bR)-5a,5b,8,8,11a-pentamethyl-1-(prop-1-en-2-yl)-3a-(2-(pyridin-2-yl)ethylcarbamoyl)-2,3,3a,4,5,5a,5b,6,7,7a,8,11,11a,11b,12,13,13a,13b-octadecahydro-1H-cyclopenta[a]chrysen-9-yl)benzoic acid], the half-maximal effective concentration (EC50) is < 100 nM.

With `C=C(C)[C@@H]1CC[C@]2(C(=O)N(C)CCN(C)C)CC[C@]3(C)[C@H](CC[C@@H]4[C@@]5(C)CC=C(c6ccc(C(=O)O)cc6)C(C)(C)[C@@H]5CC[C@]43C)[C@@H]12` [Example 31, 4-((1R,3aS,5aR,5bR,7aR,11aS,11bR,13aR,13bR)-3a-((2-(dimethylamino)ethyl)(methyl)carbamoyl)-5a,5b,8,8,11a-pentamethyl-1-(prop-1-en-2-yl)-2,3,3a,4,5,5a,5b,6,7,7a,8,11,11a,11b,12,13,13a,13b-octadecahydro-1H-cyclopenta[a]chrysen-9-yl)benzoic acid], the concentration giving a half-maximal response (EC50) is < 100 nM.

For the molecule `C=C(C)[C@@H]1CC[C@]2(C(=O)N(CCO)CCN(C)C)CC[C@]3(C)[C@H](CC[C@@H]4[C@@]5(C)CC=C(c6ccc(C(=O)O)cc6)C(C)(C)[C@@H]5CC[C@]43C)[C@@H]12` [Example 77, 4-((1R,3aS,5aR,5bR,7aR,11aS,11bR,13aR,13bR)-3a-((2-(dimethylamino)ethyl)(2-hydroxyethyl)carbamoyl)-5a,5b,8,8,11a-pentamethyl-1-(prop-1-en-2-yl)-2,3,3a,4,5,5a,5b,6,7,7a,8,11,11a,11b,12,13,13a,13b-octadecahydro-1H-cyclopenta[a]chrysen-9-yl)benzoic acid], the half-maximal effective concentration (EC50) is > 100 nM.

For `C=C(C)[C@@H]1CC[C@]2(C(=O)NCC(O)CN)CC[C@]3(C)[C@H](CC[C@@H]4[C@@]5(C)CC=C(c6ccc(C(=O)O)cc6)C(C)(C)[C@@H]5CC[C@]43C)[C@@H]12` (stereo partly drawn) [Example 64, 4-((1R,3aS,5aR,5bR,7aR,11aS,11bR,13aR,13bR)-3a-(3-amino-2-hydroxypropylcarbamoyl)-5a,5b,8,8,11a-pentamethyl-1-(prop-1-en-2-yl)-2,3,3a,4,5,5a,5b,6,7,7a,8,11,11a,11b,12,13,13a,13b-octadecahydro-1H-cyclopenta[a]chrysen-9-yl)benzoic acid], the half-maximal effective concentration (EC50) is < 100 nM.
